The subject of experiment [1] is RXRα. Put plainly: BS3 crosslinking, transfected full-length RXRα. In kind it is cell-based. The note with it: HepG2 cells; K-80003 (5 × 10^−6 M) for 6 h; BS3 1 mM; western blotting. As for the experimental part:
(§1) Cell lysates were then prepared and incubated with bis[sulfosuccinimidyl] suberate (BS3, Pierce) dissolved in dimethyl sulfoxide to a final concentration of 1 mM. The reactions were stopped with protein gel loading buffer. Samples were resolved by SDS/PAGE in 8% acrylamide gels and protein bands were visualized by western blotting.

The target in experiment [2] is T1, RXRα-LBD (Homo sapiens, UniProt P19793).
T1 construct: The human RXRα LBD (residues Thr223 to Thr462); made in house; host or cells: Escherichia coli BL21
T1 sequence (P19793 223-462): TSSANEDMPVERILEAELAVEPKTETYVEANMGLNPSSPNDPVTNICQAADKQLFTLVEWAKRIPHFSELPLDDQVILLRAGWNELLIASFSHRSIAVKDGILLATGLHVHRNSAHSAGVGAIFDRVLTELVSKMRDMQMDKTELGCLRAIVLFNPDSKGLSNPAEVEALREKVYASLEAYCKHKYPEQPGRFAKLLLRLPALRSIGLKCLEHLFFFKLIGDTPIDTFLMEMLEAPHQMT
Put plainly: Gel filtration chromatography, RXRα-LBD. Format: biochemical. The note with it: HiLoad 16/600 Superdex 200 pg, 50 mM Tris-Cl (pH 7.4), 200 mM NaCl, 1 ml min^−1; 2 h incubation; one of three similar experiments. As for the experimental part: (§2) The human RXRα LBD (residues Thr223 to Thr462) cloned as an N-terminal histidine-tagged fusion protein in pET15b expression vector was expressed in Escherichia coli BL21 strain (Stratagene). After sonication, cell extract was incubated with the His60 Ni Superflow resin, and His-tagged RXRα-LBD-resin complexes were washed, eluted and concentrated to 5 mg ml^−1 for subsequent trails. For crystallization experiment, bovine thrombin (Sigma) was used to cleave the His tag from the purified His-tagged RXRα-LBD. The resulting His tag was removed on the Resource-Q column (GE) using 0.1–1 M NaCl gradient and the Tris-Cl pH 8 buffer. RXRα-LDB was further purified using gel filtration on a Superdex 200 2660 column (GE) pre-equilibrated with the 75 mM NaCl, 20 mM Tris-Cl buffer (pH 8).
(In general: Size exclusion chromatography separates by hydrodynamic size, large species first.)

In experiment [3] the test system is tRXRα/F313A. Put plainly: BS3 crosslinking, tRXRα/F313A. Format: cell-based. The settings on record: MCF-7 cells, 9-cis-RA (10^−7 M) or K-80003 (5 × 10^−6 M) for 6 h. As to the method:
as §1

Experiment [4] deals with p85α / tRXRα interaction. Briefly: coIP, p85α with tRXRα. Format: cell-based. The settings on record: conclusion from structure and crosslinking.
Description: For coIP assay[29], HEK293T cells grown in 10 cm dishes were transfected with various plasmids. Cells were lysed in 1 ml of lysis buffer (20 mM Tris (pH 7.5), 150 mM NaCl, 1% Triton X-100, 1 mM EDTA, 30 mM NaF, 2 mM sodium pyrophosphate) with a cocktail of proteinase inhibitors (Roche). Lysates were incubated with the appropriate antibody for 12 h at 4 °C and subsequently incubated with protein A-Sepharose beads for 1 h. The immunoprecipitates were collected and washed three times with lysis buffer. The protein–antibody complexes recovered on beads were subjected to immunoblotting using appropriate antibodies after separation by SDS-PAGE. Input represents 5% of cell lysates used for coIP assays.
Experiment [5] deals with T1, RXRα-LBD. Briefly: Non-denaturing gel electrophoresis, oligomeric state of RXRα-LBD. Format: biochemical. The note with it: purified RXRα-LBD; 9-cis-RA (0.5 μM) and/or K-80003 (20 μM), 3 h at 4 °C. As to the method: as §2
For experiment [6], the system named is RXRα-LBD/L433D. Put plainly: Non-denaturing gel electrophoresis, L433D mutant. Format: biochemical, human. The note with it: K-80003 (20 μM), 3 h at 4 °C. As for the experimental part:
as §2

From paper PMC5520057, “Modulation of nongenomic activation of PI3K signalling by tetramerization of N-terminally-cleaved RXRα” (Nature Communications, 2017) come the findings set out here.

Regarding `CC1=C(CC(=O)O)c2cc(F)ccc2/C1=C\c1ccc(C(C)C)cc1` [K-80003], the “tetramerization of full-length RXRα” value in experiment [1] is on record as “failed to promote the tetramerization of the full-length RXRα”. Further, the “oligomeric state of RXRα-LBD by gel filtration” value in experiment [2] is given as “mainly existed as a tetramer”. The “oligomeric state of tRXRα/F313A” value in experiment [3] was “strong tetrameric species of tRXRα/R316E but not tRXRα/F313A independent of the presence of 9-cis-RA or K-80003”. In experiment [4], the “inhibition of tRXRα interaction with p85α” value is “inhibits tRXRα interaction with p85α by promoting tRXRα tetramerization”. Besides, the “effect on RXRα-LBD oligomeric state” value in experiment [5] is given as “induced an accumulation of tetramers”. In addition, in experiment [6], the “effect on tetramerization of RXRα-LBD/L433D” value is “failed to bind to RXRα-LBD/L433D (Supplementary Fig. 5a) and promote its tetramerization”.
